Reference: US20230278972A1, “SUBSTITUTED HALOALKYL SULFONANILIDE HERBICIDES” (FMC Corporation, priority 2020, published 2023)

How the values were obtained:
Format in all cases: in vivo
[1] = test system: barnyardgrass (Echinochloa crus-galli); experiment: Test A preemergence, barnyardgrass; conditions: Preemergence; for Barnyardgrass plant response rating: 125 g ai/ha, visual injury on 0 to 100 scale (0 no effect, 100 complete control), approximately 10 days; for Plant response rating, Barnyardgrass: 500 g ai/ha, 0 to 100 scale (0 no effect, 100 complete control)
Method in brief: (§1)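 Pots: loam soil/sand blend. Pre: directed soil spray at planting. Post: plants 2–10 cm, 1–2 leaf stage. Formulation: non-phytotoxic solvent + surfactant.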

kochia (Bassia scoparia) [2] = experiment: Test A preemergence, kochia; conditions: Preemergence; for Kochia plant response rating: 125 g ai/ha, visual injury on 0 to 100 scale (0 no effect, 100 complete control), approximately 10 days; for Plant response rating, Kochia: 500 g ai/ha, 0 to 100 scale (0 no effect, 100 complete control)
Method in brief: as §1

[3] = test system: ragweed (common ragweed, Ambrosia artemisiifolia); experiment: Test A preemergence, ragweed; conditions: Preemergence; for Ragweed plant response rating: 125 g ai/ha, visual injury on 0 to 100 scale (0 no effect, 100 complete control), approximately 10 days; for Plant response rating, Ragweed: 500 g ai/ha, 0 to 100 scale (0 no effect, 100 complete control)
Method in brief: as §1

[4] = test system: Ryegrass, Italian (Italian ryegrass, Lolium multiflorum); experiment: Test A preemergence, Ryegrass, Italian; conditions: Preemergence; for Ryegrass, Italian plant response rating: 125 g ai/ha, visual injury on 0 to 100 scale (0 no effect, 100 complete control), approximately 10 days; for Plant response rating, Ryegrass, Italian: 500 g ai/ha, 0 to 100 scale (0 no effect, 100 complete control)
Method in brief: as §1

[5] = test system: Foxtail, Giant (giant foxtail, Setaria faberi); experiment: Test A preemergence, Foxtail, Giant; conditions: Preemergence; for Foxtail, Giant plant response rating: 125 g ai/ha, visual injury on 0 to 100 scale (0 no effect, 100 complete control), approximately 10 days; for Plant response rating, Foxtail, Giant: 500 g ai/ha, 0 to 100 scale (0 no effect, 100 complete control)
Method in brief: as §1

[6] = test system: pigweed (Amaranthus retroflexus); experiment: Test A preemergence, pigweed; conditions: for Pigweed plant response rating: 125 g ai/ha, visual injury on 0 to 100 scale (0 no effect, 100 complete control), approximately 10 days; for Plant response rating, Pigweed: 500 g ai/ha, 0 to 100 scale (0 no effect, 100 complete control)
Method in brief: (§2)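 Compounds in non-phytotoxic solvent with surfactant. Soil: loam/sand. Preemergence via directed soil spray after seeding; postemergence on seedlings 2–10 cm, one- to two-leaf.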

[7] = test system: barnyardgrass (Echinochloa crus-galli); experiment: Test A postemergence, barnyardgrass; conditions: Postemergence, 0 to 100 scale (0 no effect, 100 complete control)
Method in brief: as §2

kochia (Bassia scoparia) [8] = experiment: Test A postemergence, kochia; conditions: Postemergence, 0 to 100 scale (0 no effect, 100 complete control)
Method in brief: as §1

[9] = test system: ragweed (common ragweed, Ambrosia artemisiifolia); experiment: Test A postemergence, ragweed; conditions: Postemergence, 0 to 100 scale (0 no effect, 100 complete control)
Method in brief: as §1

[10] = test system: Ryegrass, Italian (Italian ryegrass, Lolium multiflorum); experiment: Test A postemergence, Ryegrass, Italian; conditions: Postemergence, 0 to 100 scale (0 no effect, 100 complete control)
Method in brief: as §1

[11] = test system: Foxtail, Giant (giant foxtail, Setaria faberi); experiment: Test A postemergence, Foxtail, Giant; conditions: Postemergence, 0 to 100 scale (0 no effect, 100 complete control)
Method in brief: as §1

[12] = test system: pigweed (Amaranthus retroflexus); experiment: Test A postemergence, pigweed; conditions: Postemergence, 0 to 100 scale (0 no effect, 100 complete control)
Method in brief: as §1

[13] = test system: wheat (Triticum aestivum); experiment: Test A postemergence, wheat; conditions: Postemergence, 0 to 100 scale (0 no effect, 100 complete control)
Method in brief: as §2

corn (Zea mays) = experiment: Test A postemergence, corn; conditions: Postemergence, 0 to 100 scale (0 no effect, 100 complete control)
Method in brief: as §1

[14] = test system: blackgrass (Alopecurus myosuroides); experiment: Test A postemergence, blackgrass; conditions: Postemergence, 0 to 100 scale (0 no effect, 100 complete control)
Method in brief: as §1

[15] = test system: galium (catchweed bedstraw, Galium aparine); experiment: Test A postemergence, galium; conditions: Postemergence, 0 to 100 scale (0 no effect, 100 complete control)
Method in brief: as §2

[16] = 125 g ai/ha, visual injury approx. 10 days
[17] = 500 g ai/ha, visual injury, approx. 10 days

Structure (SMILES): Cc1cc(Cl)c(NS(=O)(=O)C(F)(F)F)cc1C(=O)N1CCSCC1 [Compound 26]
- Barnyardgrass plant response rating [1]: 70
- Plant response rating, Barnyardgrass [1]: 100
- Kochia plant response rating (kochia (Bassia scoparia) [2]): 0
- Plant response rating, Kochia (kochia (Bassia scoparia) [2]): 50
- Ragweed plant response rating [3]: 20
- Plant response rating, Ragweed [3]: 50
- Ryegrass, Italian plant response rating [4]: 80
- Plant response rating, Ryegrass, Italian [4]: 100
- Foxtail, Giant plant response rating [5]: 100
- Plant response rating, Foxtail, Giant [5]: 100
- Pigweed plant response rating [6]: 80
- Plant response rating, Pigweed [6]: 90
- Plant response rating, Barnyardgrass [7, 16]: 20
- Plant response rating, Barnyardgrass [7, 17]: 70
- Plant response rating, Kochia (kochia (Bassia scoparia) [8]; [16]): 0
- Plant response rating, Kochia (kochia (Bassia scoparia) [8]; [17]): 10
- Plant response rating, Ragweed [9, 16]: 50
- Plant response rating, Ragweed [9, 17]: 100
- Plant response rating, Ryegrass, Italian [10, 16]: 0
- Plant response rating, Ryegrass, Italian [10, 17]: 0
- Plant response rating, Foxtail, Giant [11, 16]: 10
- Plant response rating, Foxtail, Giant [11, 17]: 40
- Plant response rating, Pigweed [12, 16]: 50
- Plant response rating, Pigweed [12, 17]: 90
- Plant response rating, Wheat [13, 16]: 40
- Plant response rating, Wheat [13, 17]: 60
- Plant response rating, Corn (corn (Zea mays); [16]): 0
- Plant response rating, Corn (corn (Zea mays); [17]): 20
- Plant response rating, Blackgrass [14, 16]: 0
- Plant response rating, Blackgrass [14, 17]: 30
- Plant response rating, Galium [15, 16]: 70
- Plant response rating, Galium [15, 17]: 90

Structure (SMILES): Cc1cc(Cl)c(NS(=O)(=O)C(F)(F)F)cc1-c1cn(C)c(=O)n(C)c1=O [Compound 29]
- Barnyardgrass plant response rating [1]: 40
- Plant response rating, Barnyardgrass [1]: 100
- Kochia plant response rating (kochia (Bassia scoparia) [2]): 40
- Plant response rating, Kochia (kochia (Bassia scoparia) [2]): 90
- Ragweed plant response rating [3]: 60
- Plant response rating, Ragweed [3]: 90
- Ryegrass, Italian plant response rating [4]: 90
- Plant response rating, Ryegrass, Italian [4]: 100
- Foxtail, Giant plant response rating [5]: 100
- Plant response rating, Foxtail, Giant [5]: 100
- Pigweed plant response rating [6]: 70
- Plant response rating, Pigweed [6]: 90
- Plant response rating, Barnyardgrass [7, 16]: 50
- Plant response rating, Barnyardgrass [7, 17]: 90
- Plant response rating, Kochia (kochia (Bassia scoparia) [8]; [16]): 30
- Plant response rating, Kochia (kochia (Bassia scoparia) [8]; [17]): 80
- Plant response rating, Ragweed [9, 16]: 80
- Plant response rating, Ragweed [9, 17]: 90
- Plant response rating, Ryegrass, Italian [10, 16]: 70
- Plant response rating, Ryegrass, Italian [10, 17]: 90
- Plant response rating, Foxtail, Giant [11, 16]: 90
- Plant response rating, Foxtail, Giant [11, 17]: 90
- Plant response rating, Pigweed [12, 16]: 40
- Plant response rating, Pigweed [12, 17]: 50
- Plant response rating, Wheat [13, 16]: 70
- Plant response rating, Wheat [13, 17]: 70
- Plant response rating, Corn (corn (Zea mays); [16]): 0
- Plant response rating, Corn (corn (Zea mays); [17]): 10
- Plant response rating, Blackgrass [14, 16]: 80
- Plant response rating, Blackgrass [14, 17]: 90
- Plant response rating, Galium [15, 16]: 90
- Plant response rating, Galium [15, 17]: 90

Structure (SMILES): CCn1cc(-c2cc(N(S(=O)(=O)C(F)(F)F)S(=O)(=O)C(F)(F)F)c(C)cc2C)c(=O)n(C)c1=O [Compound 30]
- Barnyardgrass plant response rating [1]: 90
- Plant response rating, Barnyardgrass [1]: 90
- Kochia plant response rating (kochia (Bassia scoparia) [2]): 70
- Plant response rating, Kochia (kochia (Bassia scoparia) [2]): 90
- Ragweed plant response rating [3]: 20
- Plant response rating, Ragweed [3]: 40
- Ryegrass, Italian plant response rating [4]: 90
- Plant response rating, Ryegrass, Italian [4]: 90
- Foxtail, Giant plant response rating [5]: 80
- Plant response rating, Foxtail, Giant [5]: 100
- Pigweed plant response rating [6]: 20
- Plant response rating, Pigweed [6]: 60
- Plant response rating, Barnyardgrass [7, 16]: 90
- Plant response rating, Barnyardgrass [7, 17]: 90
- Plant response rating, Kochia (kochia (Bassia scoparia) [8]; [16]): 10
- Plant response rating, Kochia (kochia (Bassia scoparia) [8]; [17]): 50
- Plant response rating, Ragweed [9, 16]: 40
- Plant response rating, Ragweed [9, 17]: 40
- Plant response rating, Ryegrass, Italian [10, 16]: 40
- Plant response rating, Ryegrass, Italian [10, 17]: 70
- Plant response rating, Foxtail, Giant [11, 16]: 70
- Plant response rating, Foxtail, Giant [11, 17]: 90
- Plant response rating, Pigweed [12, 16]: 40
- Plant response rating, Pigweed [12, 17]: 60
- Plant response rating, Wheat [13, 16]: 60
- Plant response rating, Wheat [13, 17]: 70
- Plant response rating, Corn (corn (Zea mays); [16]): 0
- Plant response rating, Corn (corn (Zea mays); [17]): 40
- Plant response rating, Blackgrass [14, 16]: 60
- Plant response rating, Blackgrass [14, 17]: 80
- Plant response rating, Galium [15, 16]: 70
- Plant response rating, Galium [15, 17]: 90
